This note sets out measurements from patent publication US20250171495A1, “MUTLI-TARGETED SERINE PROTEASE INHIBITORS FOR TREATMENT OF CANCER AND VIRAL INFECTION” (Washington University, priority 2023, published 2025).

Common to all, as to format: biochemical
Test [1] deals with T1, matriptase (Homo sapiens, UniProt Q9Y5Y6).
T1 construct: purchased R&D Systems 3946-SEB-010
T1 sequence (Q9Y5Y6 615-855 limits assumed): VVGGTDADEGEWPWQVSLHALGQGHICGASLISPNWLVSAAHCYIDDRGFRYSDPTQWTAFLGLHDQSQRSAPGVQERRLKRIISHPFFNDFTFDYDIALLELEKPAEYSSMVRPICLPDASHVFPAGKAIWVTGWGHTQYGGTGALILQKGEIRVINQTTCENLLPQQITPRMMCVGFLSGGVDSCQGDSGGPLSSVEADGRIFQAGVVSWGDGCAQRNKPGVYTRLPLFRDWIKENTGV
In words: Fluorogenic kinetic enzyme inhibitor assay, matriptase.

Test [2] deals with T2, hepsin (Homo sapiens, UniProt P05981).
T2 construct: purchased R&D Systems 4776-SE-010
Description: Fluorogenic kinetic enzyme inhibitor assay, hepsin.

Test [3] deals with T3, HGFA (Homo sapiens, UniProt Q04756).
T3 construct: purchased R&D Systems 1514-SE-010
T3 sequence (Q04756 408-655 limits assumed): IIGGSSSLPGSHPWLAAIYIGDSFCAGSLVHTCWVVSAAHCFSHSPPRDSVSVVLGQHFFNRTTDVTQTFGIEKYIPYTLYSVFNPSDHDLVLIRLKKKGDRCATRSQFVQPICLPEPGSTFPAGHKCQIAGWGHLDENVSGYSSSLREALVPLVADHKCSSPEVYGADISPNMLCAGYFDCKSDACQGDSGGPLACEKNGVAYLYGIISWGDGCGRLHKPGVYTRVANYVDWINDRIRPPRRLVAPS
T3 sequence (Q04756 373-407 partner limits assumed): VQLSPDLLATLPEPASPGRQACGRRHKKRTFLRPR
In words: Fluorogenic kinetic enzyme inhibitor assay, HGFA.

Test [4] has as its target TMPRSS2 (Homo sapiens, UniProt O15393). Description: Fluorogenic kinetic enzyme inhibitor assay, TMPRSS2. Set-up: purchased Cusabio Technology CSB-YP023924HU. The following applies: read-out: TMPRSS2 IC50.
[5] abbreviates: 30 min incubation, Boc-QAR-AMC at Km, read-out: Hepsin IC50.

Molecules are shown by their SMILES. Read-outs that look alike come from different tables or passages of the source. A value given as a limit tells only on which side of the number the result lay.

T2 sequence (P05981 163-417 limits assumed): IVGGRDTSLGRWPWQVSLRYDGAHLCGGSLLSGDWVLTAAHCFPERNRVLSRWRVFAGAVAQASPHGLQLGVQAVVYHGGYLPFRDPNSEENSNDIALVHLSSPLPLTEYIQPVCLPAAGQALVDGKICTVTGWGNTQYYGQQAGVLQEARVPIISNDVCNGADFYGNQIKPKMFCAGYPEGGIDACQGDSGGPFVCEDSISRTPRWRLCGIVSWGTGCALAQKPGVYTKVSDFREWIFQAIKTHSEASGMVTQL
T2 sequence (P05981 1-162 partner limits assumed): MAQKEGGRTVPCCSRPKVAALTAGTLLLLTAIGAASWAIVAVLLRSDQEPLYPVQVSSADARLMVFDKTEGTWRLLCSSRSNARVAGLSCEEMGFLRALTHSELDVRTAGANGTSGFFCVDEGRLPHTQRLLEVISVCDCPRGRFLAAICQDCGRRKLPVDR
Chain of TMPRSS2 (O15393 106-492 limits assumed): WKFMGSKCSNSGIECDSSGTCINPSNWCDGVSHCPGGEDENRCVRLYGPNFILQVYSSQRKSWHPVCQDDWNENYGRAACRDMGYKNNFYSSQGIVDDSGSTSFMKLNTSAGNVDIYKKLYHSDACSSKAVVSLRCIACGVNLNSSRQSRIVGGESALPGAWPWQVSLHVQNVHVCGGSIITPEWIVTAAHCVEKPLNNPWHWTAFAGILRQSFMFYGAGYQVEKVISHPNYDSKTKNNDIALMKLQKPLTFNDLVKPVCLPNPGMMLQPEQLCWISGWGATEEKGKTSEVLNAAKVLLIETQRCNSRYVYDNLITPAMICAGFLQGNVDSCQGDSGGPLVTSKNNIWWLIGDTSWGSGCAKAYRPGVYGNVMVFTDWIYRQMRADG

Take `CC(=O)N[C@H]1Cc2ccc(cc2)OCCCC[C@@H](C(=O)N[C@@H](CCCNC(=N)N)C(=O)c2nc3ccccc3s2)NC(=O)[C@@H](Cc2c[nH]c3ccccc23)NC1=O` [VD4162B, N-[(S)-1-[(1,3-benzothiazol-2-yl)carbonyl]-4-guanidinobutyl]-(7S,10R,13S)-13-acetylamino-10-[(3-indolyl)methyl]-9,12-dioxo-2-oxa-8,11-diazabicyclo[13.2.2]nonadeca-1(17),15,18-triene-7-carboxamide]: the IC50 worked out at 2.88 nM in test [1] (30 min incubation, Boc-QAR-AMC at Km, read-out: Matriptase IC50); 0.538 nM in test [2] (setting [5]); 3.35 nM in test [3]; 4.75 nM in test [4] (30 min incubation, Boc-QAR-AMC at Km).

For `CC(=O)N[C@H]1Cc2cccc(c2)Oc2ccc(cc2)C[C@@H](C(=O)N[C@H](CCCNC(=N)N)C(=O)c2nc3ccccc3s2)NC(=O)[C@H](CC(C)C)NC1=O` [VD5123A, N-{(R)-1-[(1,3-benzothiazol-2-yl)carbonyl]-4-guanidinobutyl}-(9S,12S,15S)-9-acetylamino-12-isobutyl-10,13-dioxo-2-oxa-11,14-diazatricyclo [15.2.2.1^3,^7]docosa-1(19),3(22),4,6,17,20-hexaene-15-carboxamide], the IC50 in test [1] was 478 nM; in test [2] (read-out: Hepsin IC50) it was 146 nM; in test [3] (read-out: HGFA IC50), 17300 nM; in test [4], 1.78 nM.

With `CC(=O)N1CCC[C@H]1C(=O)N[C@@H](CO)C(=O)N[C@@H](CCCCN)C(=O)N[C@H](CCCNC(=N)N)C(=O)c1nc2ccccc2s1` [MM3194C, N-[(S)-2-hydroxy-1-[N-(S)-5-amino-1-[N-(R)-1-[(1,3-benzothiazol-2-yl)carbonyl]-4-guanidinobutylcarbamoyl]pentylcarbamoy1]ethyl]-(S)-1-acetyl-2-pyrrolidinecarboxamide], the IC50 in test [1] was 5.72 nM; in test [2] (read-out: Hepsin IC50) it was 24.9 nM; in test [3] (read-out: HGFA IC50), over 20000 nM.

For the molecule `CC(=O)N[C@@H](Cc1c[nH]c2ccccc12)C(=O)N[C@@H](Cc1ccccc1)C(=O)N[C@@H](CCCNC(=N)N)C(=O)c1nc2ccc(C(=O)O)cc2s1` [PK-1-103, 2-[(S)-2-[(S)-2-[(S)-2-acetylamino-3-(3-indolyl)propionylamino]-3-phenylpropionylamino]-5-guanidinovaleryl]-1,3-benzothiazole-6-carboxylic acid], the IC50 stood at 49.1 nM in test [1] (read-out: Matriptase IC50), 2.08 nM in test [2] (read-out: Hepsin IC50), 235 nM in test [3] (read-out: HGFA IC50) and 0.223 nM in test [4].

With `CCC(C)[C@H](NC(C)=O)C(=O)N[C@H](C(=O)N[C@@H](Cc1ccccc1)C(=O)N[C@@H](CCCNC(=N)N)C(=O)c1nc2ccccc2s1)C(C)O` (stereo partly drawn) [MM4028-2, N-[(1S)-2-hydroxy-1-[N-(S)-1-[N-(S)-1-[(1,3-benzothiazol-2-yl)carbonyl]-4-guanidinobutylcarbamoyl]-2-phenylethylcarbamoyl]propyl](2S)-2-acetylamino-3-methylvaleramide], the IC50 was 4.71 nM in test [1], 0.863 nM in test [2] (read-out: Hepsin IC50), 182 nM in test [3] (read-out: HGFA IC50) and 0.064 nM in test [4].

Regarding `CC(=O)N[C@@H](CC(C)C)C(=O)N[C@@H](CC(C)C)C(=O)N[C@@H](CCCNC(=N)N)C(=O)c1nccs1` [ZFH6201-1, N-[(S)-4-guanidino-1-[(1,3-thiazol-2-yl)carbonyl]butyl](S)-2-[(S)-2-acetylamino-4-methylvalerylamino]-4-methylvaleramide], the 50% inhibitory concentration (IC50) in test [1] (read-out: Matriptase IC50) amounted to 56 nM; in test [2] (read-out: Hepsin IC50), 4.6 nM; in test [3] (read-out: HGFA IC50), 506 nM; in test [4], 44.2 nM.

As for `CC(=O)N[C@H]1Cc2cccc(c2)Oc2ccc(cc2)C[C@@H](C(=O)N[C@@H](CCCNC(=N)N)C(=O)c2nc3ccccc3s2)NC(=O)[C@H](CC(C)C)NC1=O` [VD5123B, N-[(S)-1-[(1,3-benzothiazol-2-yl)carbonyl]-4-guanidinobutyl]-(9S,12S,15S)-9-acetylamino-12-isobutyl-10,13-dioxo-2-oxa-11,14-diazatricyclo[15.2.2.1^3,^7] docosa-1(19),3,5,7(22), 17,20-hexaene-15-carboxamide], the IC50 in test [1] (read-out: Matriptase IC50) was 140 nM; in test [2] (setting [5]), 36.9 nM; in test [3] (30 min incubation, Boc-QLR-AMC at Km, read-out: HGFA IC50), 3980 nM; in test [4], 15.2 nM.

As for `CC(=O)N[C@@H](CO)C(=O)NCc1cccc(CC(=O)N[C@@H](CC(C)C)C(=O)N[C@H](CCCNC(=N)N)C(=O)c2nc3ccccc3s2)c1` [MM1132-1, N-[(R)-1-[(1,3-benzothiazol-2-yl)carbonyl]-4-guanidinobutyl](S)-2-{[(m-{[(S)-2-acetylamino-3-hydroxypropionylamino]methyl}phenyl)methyl]carbonylamino}-4-methylvaleramide], the IC50 in test [1] (read-out: Matriptase IC50) worked out at 419 nM; in test [2] (read-out: Hepsin IC50) it was 1.91 nM; in test [3] (read-out: HGFA IC50), 3250 nM.

As for `CC(=O)N1CCC[C@H]1C(=O)N[C@@H](CO)C(=O)N[C@@H](CCCCN)C(=O)N[C@@H](CCCNC(=N)N)C(=O)c1nc2ccccc2s1` [MM3194A, N-[(S)-2-hydroxy-1-[N-(S)-5-amino-1-[N-(S)-1-[(1,3-benzothiazol-2-yl)carbonyl]-4-guanidinobutylcarbamoyl]pentylcarbamoy1]ethyl]-(S)-1-acetyl-2-pyrrolidinecarboxamide], the IC50 in test [1] was 0.293 nM; in test [2], 2.43 nM; in test [3], over 20000 nM; in test [4], 0.286 nM.

As to `CC(=O)N[C@H]1Cc2ccc(cc2)OCCCC[C@@H](C(=O)N[C@H](CCCNC(=N)N)C(=O)c2nc3ccccc3s2)NC(=O)[C@H](Cc2ccccc2)NC1=O` [VD4111A, N-[(R)-1-[(1,3-benzothiazol-2-yl)carbonyl]-4-guanidinobutyl]-(7S,10S,13S)-13-acetylamino-10-benzyl-9,12-dioxo-2-oxa-8,11-diazabicyclo[13.2.2]nonadeca-1(17),15,18-triene-7-carboxamide], the IC50 in test [1] was 330 nM; in test [2], 12.7 nM; in test [3] it was 3280 nM.

In the case of `CC(=O)N[C@H]1Cc2ccc(cc2)Oc2ccc(cc2)C[C@@H](C(=O)N[C@H](CCCNC(=N)N)C(=O)c2nc3ccccc3s2)NC(=O)[C@H](CC(C)C)NC1=O` [VD5076A, N-[(R)-1-[(1,3-benzothiazol-2-yl)carbonyl]-4-guanidinobutyl]-(8S,11S,14S)-14-acetylamino-11-isobutyl-10,13-dioxo-2-oxa-9,12-diazatricyclo[14.2.2.2^3,^6]docosa-1(18),3,5,16,19,21-hexaene-8-carboxamide], the IC50 was 2370 nM in test [1], 55.3 nM in test [2] (read-out: Hepsin IC50), 2900 nM in test [3] (read-out: HGFA IC50) and 489 nM in test [4].

Turning to `CC(=O)N[C@@H](Cc1cncn1COCc1ccccc1)C(=O)N[C@@H](CCC(C)C)C(=O)N[C@@H](CCCNC(=N)N)C(=O)c1nc2ccccc2s1` [JH1142-2, N-[(S)-1-[(1,3-benzothiazol-2-yl)carbonyl]-4-guanidinobutyl](S)-2-[(S)-2-acetylamino-3-{1-[(benzyloxy)methyl]-5-imidazolyl}propionylamino]-5-methylhexanamide], the IC50 was 1.16 nM in test [1] (read-out: Matriptase IC50), 0.93 nM in test [2] (read-out: Hepsin IC50) and 131 nM in test [3] (read-out: HGFA IC50).

Turning to `CCC(C)[C@H](NC(C)=O)C(=O)N[C@@H](CO)C(=O)N[C@@H](Cc1ccccc1)C(=O)N[C@@H](CCCNC(=N)N)C(=O)c1nc2ccccc2s1` (stereo partly drawn) [MM4009-2, N-[(S)-2-hydroxy-1-[N-(S)-1-[N-(S)-1-[(1,3-benzothiazol-2-yl)carbonyl]-4-guanidinobutylcarbamoyl]-2-phenylethylcarbamoyl]ethyl] (2S)-2-acetylamino-3-methylvaleramide], the IC50 turned out to be 2.17 nM in test [1], 1.05 nM in test [2] (read-out: Hepsin IC50), 126 nM in test [3] (read-out: HGFA IC50) and 0.067 nM in test [4].

Consider `CC(=O)N[C@@H](CO)C(=O)N[C@@H](CCC(N)=O)C(=O)N[C@@H](CC(C)C)C(=O)N[C@@H](CCCNC(=N)N)C(=O)c1nccs1` [ZFH6138, N-[(S)-3-methyl-1-[N-(S)-4-guanidino-1-[(1,3-thiazol-2-yl)carbonyl]butylcarbamoyl]butyl](S)-2-[(S)-2-acetylamino-3-hydroxypropionylamino]glutaramide], for which the IC50 in test [1] was 18 nM; in test [2] (read-out: Hepsin IC50), 0.68 nM; in test [3], 364 nM; in test [4], 1.54 nM.

On to `CCC(C)[C@H](NC(C)=O)C(=O)N[C@@H](CO)C(=O)N[C@@H](Cc1ccccc1)C(=O)N[C@H](CCCNC(=N)N)C(=O)c1nc2ccccc2s1` (stereo partly drawn) [MM4009-1, N-[(S)-2-hydroxy-1-[N-(S)-1-[N-(R)-1-[(1,3-benzothiazol-2-yl)carbonyl]-4-guanidinobutylcarbamoyl]-2-phenylethylcarbamoyl]ethyl](2S)-2-acetylamino-3-methylvaleramide], for which the IC50 stood at 18.4 nM in test [1], 2.08 nM in test [2] (read-out: Hepsin IC50) and 1340 nM in test [3] (read-out: HGFA IC50).

A word on the IC50: it is the concentration needed to halve the response being measured.
